Assay results as given in US20200131669A1, “CYCLIC PEPTIDE COMPOUND HAVING HIGH MEMBRANE PERMEABILITY, AND LIBRARY CONTAINING SAME” (Chugai Seiyaku Kabushiki Kaisha, priority 2017, published 2020).
Starred links: 1 amine or outer side, 2 acyl side, 3 side chain; linkers in the order of their positions; H or OH if unused. Positions of bridges follow the written chain, without caps; N, C: chain ends. Non-standard residues stand in square brackets, D forms with d. Residues, ends and D or L forms follow the SMILES beside them. *: point of attachment. X18 = CC(C(=O)[C@H](COC(C)(C)C)N[*:1])[C@@H](Cc1ccccc1)C(=O)[*:2]; Glu(NHSO2Me) = CS(=O)(=O)NC(=O)CC[C@H](N)C(=O)O; NMePhe(3-Cl) = CN[C@@H](Cc1cccc(Cl)c1)C(=O)O; NMePhe(4-Cl) = CN[C@@H](Cc1ccc(Cl)cc1)C(=O)O; X16 = O=C(C1CCCCC1)[C@H](CC(=O)[*:2])N[*:1]; X3 = O=C([C@H](CCCCO)N[*:1])[*:2]; Hyp = O=C(O)[C@@H]1C[C@@H](O)CN1; NMeF = CN[C@@H](Cc1ccccc1)C(=O)O; NMeGABA = CN(CCCC(=O)[*:2])[*:1]; NMeI = CC[C@H](C)[C@H](NC)C(=O)O; Butyl(3-Me,3-OH) = CC(C)(O)CC*; NMeD = CN[C@@H](CC(=O)O)C(=O)O; NMeL = CN[C@@H](CC(C)C)C(=O)O; dNMeL = CN[C@H](CC(C)C)C(=O)O; Propyl(2R-OH) = C[C@@H](O)C*; NMeNva = CCC[C@H](NC)C(=O)O; NMeV = CN[C@H](C(=O)O)C(C)C; NMeAbu = CC[C@H](NC)C(=O)O; NPentylGly = CCCCCNCC(=O)O; NMeA = CN[C@@H](C)C(=O)O; Piperidide = C1CCN(*)CC1; CH2CMe2OH = CC(C)(O)C*; NBuGly = CCCCNCC(=O)O; Isopentyl = CC(C)CC*; NPrGly = CCCNCC(=O)O; Sar = CNCC(=O)O; tBu = CC(C)(C)*; CHF2 = FC(F)*

assay: Caco-2 membrane permeability, improved method as used in the following Examples (96-well, 20 to 24 h preincubation); format: in vitro ADME; conditions: human, Caco-2, Caco-2
How it was run: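 Caco-2 monolayers were grown three weeks and preincubated 20–24 h at 37 °C with compound in DMEM+FaSSIF (1% DMSO) apically. The assay then used compound in FaSSIF/HBSS (1% DMSO, pH 6.0) apically and HBSS with 4% BSA (pH 7.4) basally. Basal samples were taken at 180 min for LC/MS, and Papp (cm/sec) was calculated.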

| SMILES | Papp A→B at 180 min [nm/s] |
| --- | --- |
| CCCCN1CC(=O)N(C)[C@@H](Cc2ccccc2)C(=O)N[C@@H](CCC(=O)NS(C)(=O)=O)C(=O)N(C)[C@@H](CC(C)C)C(=O)N[C@@H](CC(C)C)C(=O)N(C)CC(=O)N(C)[C@@H](Cc2ccccc2)C(=O)N(C)[C@@H](CC(C)C)C(=O)N[C@@H](CC(C)C)C(=O)N(C)[C@@H](CC(C)C)C(=O)N[C@H](C(=O)N2CCCCC2)CC1=O [pd70] ([NBuGly][NMeF][Glu(NHSO2Me)][NMeL]L[Sar][NMeF][NMeL]L[NMeL]D-Piperidide; lactam N-11) | 1.7 |
| CCCCCN1CC(=O)N(C)[C@@H](CC(C)C)C(=O)N[C@H](C(=O)N2CCCCC2)CC(=O)N(C)[C@@H](C(C)C)C(=O)N[C@@H](CC(C)C)C(=O)N(C)[C@@H](CC)C(=O)N(C)[C@@H](Cc2ccccc2)C(=O)N[C@@H](C)C(=O)N(C)[C@@H](Cc2ccccc2)C(=O)N(C)[C@@H](CC)C(=O)N[C@@H]([C@@H](C)O)C1=O [pd403] ([NMeV]L[NMeAbu][NMeF]A[NMeF][NMeAbu]T[NPentylGly][NMeL]D-Piperidide; lactam N-11) | 90 |
| CCCN1CC(=O)N(C)[C@@H](CC(C)C)C(=O)N[C@H](C(=O)N2CCCCC2)CC(=O)N(C)[C@@H](C)C(=O)N[C@@H](CC(C)C)C(=O)N(C)[C@@H](CC(C)C)C(=O)N(C)[C@@H](Cc2ccccc2)C(=O)N[C@@H](COCC(C)(C)O)C(=O)N(C)[C@@H](Cc2ccccc2)C(=O)N(C)[C@@H]([C@@H](C)CC)C(=O)N[C@@H]([C@@H](C)O)C1=O [pd429] ([NMeA]L[NMeL][NMeF]S(CH2CMe2OH)[NMeF][NMeI]T[NPrGly][NMeL]D-Piperidide; lactam N-11) | 33 |
| CC[C@H](C)[C@@H]1NC(=O)[C@H](C(C)C)N(C)C(=O)CCCN(C)C(=O)C[C@@H](C(=O)N2CCCCC2)NC(=O)[C@H](CC(C)C)N(C)C(=O)[C@H](CC(C)C)N(C)C(=O)[C@H]([C@@H](C)O)NC(=O)[C@H](CC(C)C)N(C)C(=O)[C@H](COCCC(C)(C)O)NC(=O)[C@H](Cc2cccc(Cl)c2)N(C)C(=O)[C@H](Cc2ccccc2)N(C)C1=O [pd435] ([NMeGABA][NMeV]I[NMeF][NMePhe(3-Cl)]S(Butyl(3-Me,3-OH))[NMeL]T[NMeL][NMeL]D-Piperidide; lactam N-11) | 14 |
| CC(C)C[C@@H]1NC(=O)C[C@@H](C(=O)N2CCCCC2)NC(=O)[C@H](CC(C)C)N(C)C(=O)[C@H](CC(C)C)N(C)C(=O)[C@H](Cc2ccc(OC(F)F)cc2)NC(=O)[C@H](C)N(C)C(=O)CN(C)C(=O)[C@H]([C@@H](C)O)NC(=O)[C@H](CC(C)C)N(C)C(=O)[C@H](C(C)C)NC(=O)[C@H](Cc2ccccc2)N(C)C1=O [pd477] (L[NMeF]V[NMeL]T[Sar][NMeA]Y(CHF2)[NMeL][NMeL]D-Piperidide; lactam N-11) | 22 |
| CCC[C@H]1C(=O)N[C@@H](CC(C)C)C(=O)N(C)[C@@H](CC(C)C)C(=O)N[C@@H]([C@@H](C)O)C(=O)N2CCC[C@H]2C(=O)N(C)[C@@H](CC(C)C)C(=O)N[C@@H]([C@@H](C)CC)C(=O)N(C)[C@@H](CC(C)C)C(=O)N2C[C@H](OCC)C[C@H]2C(=O)N[C@H](C(=O)N2CCCCC2)CC(=O)N(C)[C@H](CC(C)C)C(=O)N1C [pd382] ([dNMeL][NMeNva]L[NMeL]TP[NMeL]I[NMeL][Hyp](Et)D-Piperidide; lactam N-11) | 48 |
| CC(C)CCOC[C@@H]1NC(=O)[C@H](CC(C)C)N(C)C(=O)CN(C)C(=O)[C@H]([C@@H](C)O)NC(=O)[C@H](CC(C)C)N(C)C(=O)[C@H](COCCC(C)(C)O)NC(=O)[C@H](Cc2ccccc2)N(C)C(=O)[C@@H](C(C)C)NC(=O)C[C@@H](C(=O)N2CCCCC2)NC(=O)[C@H](CC(C)C)N(C)C(=O)[C@H](Cc2ccccc2)N(C)C1=O [pd433] ([dV][NMeF]S(Butyl(3-Me,3-OH))[NMeL]T[Sar][NMeL]S(Isopentyl)[NMeF][NMeL]D-Piperidide; lactam N-11) | 14 |
| CC[C@H](C)[C@H]1C(=O)N[C@@H](C(C)C)C(=O)N(C)CC(=O)N(C)[C@@H](CC(C)C)C(=O)N[C@H](C(=O)N2CCCCC2)CC(=O)N(C)[C@@H](C)C(=O)N[C@@H](COC[C@@H](C)O)C(=O)N(C)[C@H](CC(C)C)C(=O)N(C)[C@@H](Cc2ccccc2)C(=O)N[C@@H](CC(C)C)C(=O)N(C)[C@@H](Cc2ccccc2)C(=O)N1C [pd495] ([NMeA]S(Propyl(2R-OH))[dNMeL][NMeF]L[NMeF][NMeI]V[Sar][NMeL]D-Piperidide; lactam N-11) | 37 |
| CC(C)C[C@@H]1NC(=O)[C@H](Cc2ccccc2)N(C)C(=O)[C@@H](C(C)C)NC(=O)C[C@@H](C(=O)N2CCCCC2)NC(=O)[C@H](C(C)C)N(C)C(=O)[C@H](Cc2ccccc2)N(C)C(=O)[C@H](COC(C)(C)C)NC(=O)[C@H](CC(C)C)N(C)C(=O)CN(C)C(=O)[C@H](CCCCO)NC(=O)[C@H](CC(C)C)N(C)C1=O [pd450] ([dV][NMeF]L[NMeL][X3][Sar][NMeL]S(tBu)[NMeF][NMeV]D-Piperidide; lactam N-11) | 18 |

same assay, conditions: human, Caco-2, Caco-2 (cm/sec)

| SMILES | Papp A→B at 180 min [nm/s] |
| --- | --- |
| CC(C)C[C@@H]1NC(=O)[C@H](Cc2ccccc2)N(C)C(=O)[C@H](C)NC(=O)C[C@@H](C(=O)N2CCCCC2)NC(=O)[C@H](Cc2ccccc2)N(C)C(=O)[C@H](Cc2ccccc2)N(C)C(=O)[C@H](COC(C)(C)C)NC(=O)[C@H](CC(C)C)N(C)C(=O)CN(C)C(=O)[C@H]([C@@H](C)O)NC(=O)[C@H](CC(C)C)N(C)C1=O [pd217] (A[NMeF]L[NMeL]T[Sar][NMeL]S(tBu)[NMeF][NMeF]D-Piperidide; lactam N-11) | 11 |
| CC(C)C[C@H]1C(=O)N[C@@H](COC(C)(C)C)C(=O)N(C)[C@@H](Cc2ccccc2)C(=O)N(C)[C@@H](CC(C)C)C(=O)N(C)[C@H](C(=O)N2CCCCC2)CC(=O)N[C@H](C)C(=O)N(C)[C@@H](Cc2cccc(Cl)c2)C(=O)N[C@@H](C(C)C)C(=O)N(C)[C@@H](C(C)C)C(=O)N[C@@H]([C@@H](C)O)C(=O)N(C)CC(=O)N1C [pd159] ([dA][NMePhe(3-Cl)]V[NMeV]T[Sar][NMeL]S(tBu)[NMeF][NMeL][NMeD]-Piperidide; lactam N-11) | 18 |
| CC(C)C[C@@H]1NC(=O)[C@H](Cc2ccccc2)N(C)C(=O)[C@H](CC(C)C)N(C)C(=O)[C@H](Cc2ccccc2)NC(=O)[C@@H](C)NC(=O)C[C@@H](C(=O)N2CCCCC2)NC(=O)[C@H](Cc2ccccc2)N(C)C(=O)CN(C)C(=O)[C@H](Cc2ccccc2)NC(=O)[C@H](CC(C)C)N(C)C(=O)[C@H]([C@@H](C)O)NC1=O [pd244] ([dA]F[NMeL][NMeF]LT[NMeL]F[Sar][NMeF]D-Piperidide; lactam N-11) | 0.45 |
| CC(C)C[C@@H]1NC(=O)[C@H](Cc2ccccc2)C(C)C(=O)[C@H](COC(C)(C)C)NC(=O)[C@H](Cc2ccccc2)N(C)C(=O)[C@H](C)N(C)C(=O)[C@H](CC(C)C)N(C)C(=O)[C@H]2CCCN2C(=O)C[C@@H](C(=O)N2CCCCC2)N(C)C(=O)[C@H](Cc2ccccc2)N(C)C(=O)[C@H]([C@@H](C)O)NC(=O)[C@H](C(C)C)N(C)C1=O (some centres unmarked) [pd219] ([dP][NMeL][NMeA][NMeF][X18]L[NMeV]T[NMeF][NMeD]-Piperidide; lactam N-10) | 11 |
| CC(C)C[C@@H]1NC(=O)[C@H](Cc2ccccc2)N(C)C(=O)[C@H]2CCCN2C(=O)C[C@@H](C(=O)N2CCCCC2)NC(=O)[C@H](Cc2ccccc2)N(C)C(=O)[C@H](Cc2ccccc2)N(C)C(=O)[C@H](COC(C)(C)C)NC(=O)[C@H](CC(C)C)N(C)C(=O)CN(C)C(=O)[C@H]([C@@H](C)O)NC(=O)[C@H](CC(C)C)N(C)C1=O [pd206] ([dP][NMeF]L[NMeL]T[Sar][NMeL]S(tBu)[NMeF][NMeF]D-Piperidide; lactam N-11) | 18 |
| CCCN1CC(=O)N(C)[C@@H](CC(C)C)C(=O)N[C@@H](COC(C)(C)C)C(=O)N(C)[C@@H](Cc2ccccc2)C(=O)N(C)[C@@H](Cc2ccccc2)C(=O)N[C@H](C(=O)N2CCCCC2)CC(=O)N[C@H](C)C(=O)N(C)[C@@H](Cc2ccccc2)C(=O)N[C@@H](C(C)C)C(=O)N(C)[C@@H](CC(C)C)C(=O)N[C@@H]([C@@H](C)O)C1=O [pd194] ([dA][NMeF]V[NMeL]T[NPrGly][NMeL]S(tBu)[NMeF][NMeF]D-Piperidide; lactam N-11) | 53 |
| CC(C)C[C@H]1C(=O)N[C@@H](C(C)C)C(=O)N(C)[C@@H](Cc2ccccc2)C(=O)N(C)[C@@H](Cc2ccccc2)C(=O)N[C@@H](COC(C)(C)C)C(=O)N(C)[C@@H](CC(C)C)C(=O)N[C@@H]([C@@H](C)O)C(=O)N(C)[C@@H](Cc2ccccc2)C(=O)N(C)[C@@H](CC(C)C)C(=O)N[C@H](C(=O)C2CCCCC2)CC(=O)N(C)CCCC(=O)N1C [pd216] (cyclo([NMeF][NMeF]S(tBu)[NMeL]T[NMeF][NMeL][X16][NMeGABA][NMeL]V)) | 12 |

same assay, conditions: human, Caco-2, improved method, preincubation 20 to 24 hours; Papp, sample at 180 minutes; read-out: Caco-2

| SMILES | Papp A→B at 180 min [nm/s] |
| --- | --- |
| CC(C)C[C@@H]1NC(=O)[C@H](Cc2ccc(Cl)cc2)N(C)C(=O)[C@H](CC(C)C)N(C)C(=O)[C@H](C(C)C)NC(=O)[C@H](C)N(C)C(=O)C[C@@H](C(=O)N2CCCCC2)NC(=O)[C@H](CC(C)C)N(C)C(=O)CN(C)C(=O)[C@H]([C@@H](C)O)NC(=O)[C@H](CC(C)C)N(C)C(=O)[C@H](Cc2ccccc2)N(C)C1=O [pd174] ([NMeA]V[NMeL][NMePhe(4-Cl)]L[NMeF][NMeL]T[Sar][NMeL]D-Piperidide; lactam N-11) | 13 |
